The values that follow come from ChEMBL document CHEMBL5608162, “Design, synthesis and biological evaluation of 6-chloro-quinolin-2-one derivatives as novel FXIa inhibitors” (Bioorg Med Chem Lett, 2024).

In brackets after ≈: the same amount, converted by molar mass.

A short description of data set [1]: AUC in iv dosed rat. The data set is classed as ADME, organism-based. The conditions noted are these: in vivo.
A short description of data set [2]: Tmax in iv dosed rat. In kind it is ADME, organism-based. The conditions noted are these: in vivo.
The nature of data set [3]: Volume of distribution at steady state in iv dosed rat. In kind it is ADME, organism-based. Particulars: in vivo, read-out: Vdss.
Data set [4] can be described thus: Half life in iv dosed rat. The data set is classed as ADME, organism-based. Particulars: in vivo.
Data set [5] is described as follows: Solubility of compound at pH 8. In kind it is physicochemical. Particulars: buffer.
Data set [6] is described as follows: Cmax in iv dosed rat. The data set is classed as ADME, organism-based. The conditions noted are these: in vivo.

Description for Plasma: Anticoagulation activity in plasma (unknown origin) assessed as concentration required for twice the activated partial thromboplastin time

As for `CC[C@@H](C(=O)Nc1ccc(C(N)=O)c(F)c1)n1cc(OC)c(-c2cc(Cl)ccc2-n2cc(C(F)(F)F)nn2)cc1=O`, in the data set with Plasma, the 2aPTT was 3.8 µM.

The molecule `CN(Cc1cc(=O)[nH]c2ccc(Cl)cc12)C(=O)[C@H](Cc1ccc(NC(=O)C2CCCC2)cc1)NC(=O)c1ccc(C(=O)O)s1` showed a 2aPTT with Plasma of 11.2 µM.

Broadly, the AUC is concentration integrated over time. Higher therefore signals high exposure. As a reminder, the Tmax is the time from dosing to the highest level. What is called half-life is the time needed for the level to fall by half in the phase considered. Read a low half-life as rapid decline. In general, solubility refers to the concentration that dissolves in the medium under given conditions. One may read the Cmax as the maximum level reached in the sampled fluid or tissue. Molecule `CC1CC1C(=O)Nc1ccc(C[C@H](NC(=O)c2ccc(C(=O)O)s2)C(=O)N(C)Cc2cc(=O)[nH]c3ccc(Cl)cc23)cc1` (stereo not given in full) yielded a 2aPTT in the data set on Plasma of 6.8 µM. Besides, in data set [1], the AUC amounted to 313 ng·h/mL. In addition, the time to peak (Tmax) in data set [2] worked out at 1.2 min. In addition, in data set [3], the Vd is 40 L/kg. The molecule also gave a half-life in data set [4] of 48.6 min. The solubility result in data set [5] is “Soluble”. Further, the highest level in data set [6] (Cmax) was 2120 ng/mL.

Consider `CN(Cc1cc(=O)[nH]c2ccc(Cl)cc12)C(=O)[C@H](Cc1ccc(NC(=O)C2CCCCC2)cc1)NC(=O)c1ccc(C(=O)O)s1`, for which the 2aPTT with Plasma was found to be 14 µM.

Molecule `CN(Cc1cc(=O)[nH]c2ccc(Cl)cc12)C(=O)[C@H](Cc1ccc(NC(=O)C2CC2)cc1)NC(=O)c1ccc(C(=O)O)s1` had a 2aPTT with Plasma of 6.9 µM.

As to `COC(=O)Nc1ccc(C(=O)N[C@@H](Cc2ccccc2)C(=O)N(C)Cc2cc(=O)[nH]c3ccc(Cl)cc23)cc1`, the 2aPTT in the data set with Plasma worked out at 16.7 µM. For the same molecule, in data set [5] (read-out: solubility), the solubility was found to be 17.3 µg/mL (≈ 31.6 µM).

In the case of `CN(Cc1cc(=O)[nH]c2ccc(Cl)cc12)C(=O)[C@H](Cc1ccc(NC(=O)C2CC2(C)C)cc1)NC(=O)c1ccc(C(=O)O)s1` (stereo not given in full), the 2aPTT in the data set on Plasma was 9.8 µM.

As to `CN(Cc1cc(=O)[nH]c2ccc(Cl)cc12)C(=O)[C@H](Cc1ccc(NC(=O)C2CCC2)cc1)NC(=O)c1ccc(C(=O)O)s1`, the 2aPTT in the data set on Plasma is 13.3 µM.
